Experimental data published in the NIST ThermoML archive (doi:10.1016/j.jct.2015.05.013).

Experiment: cn = amount concentration of the nth substance listed, in mol/dm3
Conditions: 298.15 K, 101.3 kPa, Liquid, Taylor dispersion method

COC(=O)[C@@H](N)Cc1cnc[nH]1.Cl.Cl [methyl L-histidinate dihydrochloride] + O
Conditions	binary diffusion coefficient [m2/s]
c1 = 0.001	1.05e-09
c1 = 0.005	1.01e-09
c1 = 0.01	9.82e-10
c1 = 0.02	9.6e-10
c1 = 0.05	9.21e-10
c1 = 0.1	8.61e-10
